Assay results taken from paper PMC9743090, “Induction of Ferroptosis in Glioblastoma and Ovarian Cancers by a New Pyrrole Tubulin Assembly Inhibitor” (Journal of Medicinal Chemistry, 2022).
Entries after “also recorded” stand apart in the source; their conditions may differ.

Assays:
[1] = tested on: MCF-7 human breast carcinoma cells; experiment: Inhibition of the growth of MCF-7 human breast carcinoma cells; format: cell-based
Method: The methodology for the evaluation of the growth of human MCF-7 breast carcinoma cells was previously described, except that cells were grown for 96 h for IC50 determinations.[66] U-87 MG and OVCAR-3 proliferation assays were performed plating 10^4 cells/cm^2 in a Multiwell 24. The day after, cells were treated with compound 15, and DMSO was used as a control. Cells were counted 48 h later with a Bürker counting chamber, after dilution in TrypanBlue (#T6146 Sigma-Aldrich).

[2] = tested on: human primary T lymphocytes; experiment: Toxicity on human primary T lymphocytes (annexin V / propidium iodide flow cytometry); format: cell-based; conditions: 48 or 72 h
Method: Cell lines were obtained from the American Type Culture Collection (ATCC), Rockville, MD. U87 MG cells were cultured in minimum essential medium (MEM) supplemented with 10% fetal bovine serum, 1% penicillin/streptomycin, 1% glutamine, 1% sodium pyruvate, and 1% nonessential amino acids. OVCAR-3 cells were cultured in Dulbecco’s modified eagle medium (DMEM) purchased from Sigma Aldrich (cat. no. D6546) supplemented with 20% fetal bovine serum,1% penicillin/streptomycin, 1% glutamine, 1% sodium pyruvate, 1% Hepes, and 0.01 μg/mL insulin (Sigma Aldrich, cat. no. 19278). […] Healthy donors’ peripheral blood mononuclear cells (PBMCs) were isolated by Lymphoprep (Nycomed) gradient centrifugation. T lymphocytes were negatively selected from PBMCs using a magnetic Dynabeads Untouched Human T Cells Kit (Thermo Fisher Scientific) following the manufacturer’s instructions.
Apoptotic cell death was evaluated using the APC Annexin-V Apoptosis Detection Kit with PI (Thermo Fisher Scientific). Briefly, 1.5 × 10^6/mL cells were cultured in 48-well plates, untreated or treated with different concentrations of 15 for 48 or 72 h. Cells were then stained using annexin-V/APC and propidium iodide according to the manufacturer’s instructions. Cell populations were acquired using a FACS Canto II flow cytometer (BD Biosciences). […]

[3] = tested on: PARP cleavage in OVCAR-3 cells; experiment: PARP cleavage by western blot in OVCAR-3 cells; format: cell-based, human; conditions: immunoblotting
Method: Western blotting was performed as previously described[68] by lysing cells in denaturing buffer sodium dodecyl sulfate (SDS)–urea. Extracts were sonicated, their protein quantified, and aliquots were loaded into an SDS–polyacrylamide gel. After electrophoresis, the proteins in the gel were transferred onto a nitrocellulose membrane (cat. no. NBA085C001EA, PerkinElmer), which then was blocked with 5% milk in TBS-T (Tris HCl with 0.1% Tween 20) and incubated with primary antibodies overnight: PARP antibody diluted 1:1000 (cat. no. 9542S CST) and actin antibody diluted 1:10,000 (cat. no. A5441, Sigma Aldrich). The next day, the membrane was extensively washed with TBS-T and incubated with horse radish peroxidase (HRP)-conjugated secondary antibodies diluted in the 5% milk solution. Detection of the HRP signal was performed using ECL (cat. no. K-12045-D50, Advansta).

SMILES: COc1cc(C(=O)c2cn(-c3ncccn3)cc2-c2ccco2)cc(OC)c1OC [Compound 15, (4-(Furan-2-yl)-1-(pyrimidyl-2-yl)-1H-pyrrol-3-yl)(3,4,5-trimethoxyphenyl)methanone]
- Inhibition of MCF-7 cell growth (in words) [1]: strong inhibition
- IC50 ([1]; Homo sapiens, MCF7, inhibition of cell growth, cells grown for 96 h, read-out: MCF-7 IC50 ± SD): 4 ± 1 nM
- cell viability / toxicity ([2]; 0.1 μM): did not change cell viability; also recorded: not toxic
- cell viability / toxicity ([2]; 1.0 or 2.5 μM): some cytotoxicity was observed
- concentration from which cleaved PARP increases [3]: ≥ 5 nM
